Test results from article PMC8406801, “Naringenin Inhibits Platelet Activation and Arterial Thrombosis Through Inhibition of Phosphoinositide 3-Kinase and Cyclic Nucleotide Signaling” (Frontiers in Pharmacology, 2021).
Values joined by “and” are separate entries in the source; they are usually repeats but may differ in a detail not shown here. Equal values may be shown once. Read-outs that look alike come from different tables or passages of the source.

Experiments:
washed rat platelets [1] = test: Thrombin (0.2 U/mL)-induced aggregation of washed platelets; assay type: cell-based; settings: for Aggregation (%) / Aggregation % of control: washed platelets, single replicates; for Aggregation (%): raw data
Procedure: Washed rat platelets were prepared as described previously ([Gao et al., 2011]) with a minor modification. Briefly, rat blood was drawn from the abdominal aorta into the siliconized vacutainers containing 1:9 (v/v) 3.8% sodium citrate, supplemented with 100 ng/ml prostaglandin E1 (PGE1) and centrifuged at 300 × g for 6 min at room temperature. Platelet-rich plasma (PRP) was obtained, and after the addition of 100 ng/ml PGE1, platelets were pelleted at 900 × g for 10 min. Platelets were washed once in Tyrode’s buffer (12 mM NaHCO3, 138 mM NaCl, 5.5 mM glucose, 2.9 mM KCl, 2 mM MgCl2, 0.42 mM NaH2PO4, 10 mM HEPES, pH 7.4) containing 100 ng/ml PGE1, and finally resuspended in Tyrode’s buffer containing 0.02 U/mL apyrase to a final concentration of 4×10^8 cells/mL. Washed platelets were preincubated with vehicle (0.4% dimethyl sulfoxide) or various concentrations of naringenin in the presence of 2 mM CaCl2 for 5 min at 37°C, and then further stimulated by ADP (10 μM), thrombin (0.2 U/mL) or collagen (2 μg/ml). The maximum platelet aggregation rate was detected within 5 min with continuous stirring.
FIGURE 1 Effects of naringenin and naringin on platelet aggregation. Chemical structure of naringin (A) and naringenin (B). The effects of naringin (C) or naringenin (D) on PRP were measured following stimulation with 10 μmol/L ADP. Rat washed platelet aggregation performed with or without different concentrations of naringin (E) or naringenin (F) was recorded after stimulation with 10 μmol/L ADP. Similarly, Washed platelet aggregation performed with vehicle or various concentrations of naringenin was recorded after stimulation with 0.2 U/mL thrombin (G) or 2 μg/ml collagen (H). WP represents washed platelets. Data are expressed as means ± SD (n = 6), the level of aggregation obtained at 5 min with vehicle-treated samples (0 μM) was taken as 100%. *p < 0.05, **p < 0.01, ***p < 0.001 compared with the vehicle control group.

washed rat platelets [2] = test: ADP (5 μM)-stimulated aggregation of washed platelets (Figure S1); assay type: cell-based; settings: 200, 400 and 800 μM similar efficacy
Description: Platelet aggregation was induced by ADP using washed platelets and PRP. […]
(1 picture or pasted object on this page, not shown here)

[3] = Cytotoxicity: LDH leakage from platelets; assay type: cell-based; settings: rat
Procedure: To assess the potential cytotoxicity of naringenin, lactate dehydrogenase (LDH) leakage from platelets were determined. Washed platelets were preincubated with either various concentrations of naringenin or vehicle at 37°C for 5 min and then centrifuged at 350 × g for 3 min at room temperature. The supernatant was detected by LDH assay kit (Beyotime Biotechnology, Shanghai, China). LDH leakage was expressed as percentages of the total LDH leakage in platelets completely lysed with 0.1% Triton X-100.

[4] = system: washed platelets on fibrinogen-coated coverslips; test: Platelet spreading on fibrinogen; assay type: cell-based, rat; settings: for surface coverage, platelet spreading on fibrinogen: mean ± SD, n = 3, vehicle 30.37 ± 3.31%; for Area (%) of platelets spread on fibrinogen: single replicates
Procedure: Washed platelets were incubated with vehicle or various concentrations of naringenin at 37°C for 10 min in the presence of 2 mM CaCl2 and allowed to spread on fibrinogen-coated coverslips for 45 min at 37°C ([Liu et al., 2016]). After washed three times with phosphate-buffered saline (PBS), adherent platelets were fixed with 4% paraformaldehyde, permeabilized with 0.1% Triton X-100 and stained with TRITC-conjugated phalloidin (1 μg/ml) in the dark at room temperature for 60 min. Adherent platelets were observed under an inverted fluorescence microscope (Nikon TE-2000S) and processed using Image J software.

cAMP = test: Measurement of cAMP in washed platelets (ELISA); assay type: cell-based, rat; settings: single replicates
Procedure: Washed platelets were preincubated with vehicle or various concentrations of naringenin in the presence of 2 mM CaCl2 at 37°C for 5 min and then stimulated with ADP (10 μM) for 5 min for platelet aggregation. The reaction was terminated by adding EDTA (10 mM). The platelets were boiled for 5 min at 100 °C followed by centrifugation at 13,000 × g for 5 min cAMP and cGMP levels in the supernatant were measured using cAMP or cGMP enzyme immunoassay kits (Cayman Chemicals, Ann Arbor, MI, United States).
FIGURE 6 Naringenin elevates platelet cGMP levels and inhibits phosphodiesterase activity. The levels of cAMP (A) and cGMP (B) in washed platelets preincubated with vehicle or naringenin (100, 200, 400, and 800 μmol/L) were determined after stimulation with ADP (10 μmol/L) using ELISA kits. Similarly, the levels of cAMP (C) and cGMP (D) were determined in resting platelets incubated with naringenin (200, 400, and 800 μmol/L) or vehicle for 5 min. R represents the levels of cAMP or cGMP in resting platelets. Data are expressed as means ± SD (n = 4). *p < 0.05, ***p < 0.001 compared with the vehicle control group. The effects of naringenin on phosphodiesterase activity were measured by HPLC on the hydrolysis of cAMP (E) and cGMP (F). The level of phosphodiesterase activity obtained with vehicle control (0 μM) was taken as 100%. Data are expressed as means ± SD (n = 3). *p < 0.05, ***p < 0.001 compared with the vehicle control group.

washed rat platelets [5] = test: ADP (10 μM)-induced aggregation of washed rat platelets; assay type: cell-based; settings: H89+Naringenin (200 μM)+ADP (10 μM); Figure 7E

Structure (SMILES): O=C1C[C@@H](c2ccc(O)cc2)Oc2cc(O)cc(O)c21 [Naringenin]
- IC50 (washed rat platelets [1]): ~684 µM
- IC50 (washed rat platelets [1]; Rattus norvegicus, Platelet): 684 ± 80.8 µM
- Aggregation (%) (washed rat platelets [1]; 100 μM): 77.1% and 76.2% and 52.9% and 66.7% and 72.2% and 88.4%
- Aggregation % of control (washed rat platelets [1]; 100 μM): 95.0 % of control and 93.9 % of control and 65.2 % of control and 82.2 % of control and 88.9 % of control and 108.9 % of control
- Aggregation (%) (washed rat platelets [1]; 200 μM): 79.6% and 67.1% and 56.9% and 52.0% and 48.0% and 62.4%
- Aggregation % of control (washed rat platelets [1]; 200 μM): 98.1 % of control and 82.7 % of control and 70.1 % of control and 64.1 % of control and 59.1 % of control and 76.9 % of control
- Aggregation (%) (washed rat platelets [1]; 400 μM): 77.0% and 53.3% and 68.0% and 42.9% and 66.7% and 43.5%
- Aggregation % of control (washed rat platelets [1]; 400 μM): 94.9 % of control and 65.7 % of control and 83.8 % of control and 52.9 % of control and 82.2 % of control and 53.6 % of control
- Aggregation (%) (washed rat platelets [1]; 800 μM): 45.5% and 30.8% and 28.0% and 42.4% and 22.5% and 36.0%
- Aggregation % of control (washed rat platelets [1]; 800 μM): 56.1 % of control and 37.9 % of control and 34.5 % of control and 52.2 % of control and 27.7 % of control and 44.4 % of control
- effect on ADP (5 μM)-stimulated platelet aggregation (washed rat platelets [2]): significant levels of inhibition
- cytotoxicity at 5 min, 100 µM ([3]; Cytotoxicity (%)): 0.99 ± 0.21%
- cytotoxicity at 5 min, 200 µM ([3]; Cytotoxicity (%)): 1.16 ± 0.39%
- cytotoxicity at 5 min, 400 μM ([3]; Cytotoxicity (%)): 2.11 ± 0.81%
- cytotoxicity at 5 min, 800 μM ([3]; Cytotoxicity (%)): 2.5 ± 0.85%
- cytotoxicity at 5 min, 400 μM ([3]; washed platelets, naringenin 400 μM, LDH leakage, Table 1, read-out: Cytotoxicity (%)): 1.94%
- cytotoxicity at 5 min, 800 μM ([3]; washed platelets, naringenin 800 μM, LDH leakage, Table 1, read-out: Cytotoxicity (%)): 1.94%
- surface coverage, platelet spreading on fibrinogen ([4]; 100 μM): 20.96 ± 5.08%
- Area (%) of platelets spread on fibrinogen ([4]; 100 μM): 25.76% and 15.64% and 21.47%
- surface coverage, platelet spreading on fibrinogen ([4]; 200 μM): 15.29 ± 1.87%
- Area (%) of platelets spread on fibrinogen ([4]; 200 μM): 16.88% and 15.75% and 13.23%
- surface coverage, platelet spreading on fibrinogen ([4]; 400 μM): 10.56 ± 0.79%
- Area (%) of platelets spread on fibrinogen ([4]; 400 μM): 9.69% and 11.23% and 10.75%
- surface coverage, platelet spreading on fibrinogen ([4]; 800 μM): 6.98 ± 2.74%
- Area (%) of platelets spread on fibrinogen ([4]; 800 μM): 4.62% and 6.33% and 9.98%
- cAMP release (cAMP; ADP 10 μmol/L-stimulated platelets, 100 μM): 21.36 pmol/mL and 22.41 pmol/mL and 21.09 pmol/mL and 22.01 pmol/mL
- cAMP release (cAMP; ADP 10 μmol/L-stimulated platelets, 200 μM): 21.75 pmol/mL and 22.14 pmol/mL and 22.01 pmol/mL and 23.59 pmol/mL
- cAMP release (cAMP; ADP 10 μmol/L-stimulated platelets, 400 μM): 27.54 pmol/mL and 26.36 pmol/mL and 22.01 pmol/mL and 20.04 pmol/mL
- cAMP release (cAMP; ADP 10 μmol/L-stimulated platelets, 800 μM): 22.54 pmol/mL and 21.62 pmol/mL and 23.20 pmol/mL and 26.75 pmol/mL
- cAMP release (cAMP; resting platelets, 200 μM, 5 min): 19.51 pmol/mL and 23.07 pmol/mL and 21.88 pmol/mL and 25.17 pmol/mL
- cAMP release (cAMP; resting platelets, 400 μM, 5 min): 23.59 pmol/mL and 22.67 pmol/mL and 21.88 pmol/mL and 20.96 pmol/mL
- cAMP release (cAMP; resting platelets, 800 μM, 5 min): 19.64 pmol/mL and 23.59 pmol/mL and 22.67 pmol/mL and 22.14 pmol/mL
- Aggregation (%) (washed rat platelets [5]): 25.0% and 17.3% and 32.6% and 33.0% and 28.0% and 21.0%
